# Target: T1, indoleamine 2, 3-dioxygenase (IDO1) (Homo sapiens, UniProt P14902)
# T1 construct: human peripheral blood mononuclear cells (PBMC) (PB003F; host or cells: human PBMC stimulated with IFN-gamma and LPS
# Assay: PBMC IDO1 assay (kynurenine detection via mass spectrometry)
# Format: cell-based
# Conditions: human PBMC stimulated with IFN-γ and LPS, 2 days, kynurenine by mass spectrometry; read-out: IDO1 PBMC pIC50 (converted)
# Protocol: Compounds of the present invention were tested via high-throughput cellular assays utilizing detection of kynurenine via mass spectrometry and cytotoxicity as end-points. For the mass spectrometry and cytotoxicity assays, human peripheral blood mononuclear cells (PBMC) (PB003F; AIICells®, Alameda, Calif.) were stimulated with human interferon-γ (IFN-γ) (Sigma-Aldrich Corporation, St. Louis, Mo.) and lipopolysaccharide from Salmonella minnesota (LPS) (Invivogen, San Diego, Calif.) to induce the expression of indoleamine 2, 3-dioxygenase (IDO1). Compounds with IDO1 inhibitory properties decreased the amount of kynurenine produced by the cells via the tryptophan catabolic pathway. Cellular toxicity due to the effect of compound treatment was measured using CellTiter-Glo® reagent (CTG) (Promega Corporation, Madison, Wis.), which is based on luminescent detection of ATP, an indicator of metabolically active cells.
# In preparation for the assays, test compounds were serially diluted 3-fold in DMSO from a typical top concentration of 5 mM and plated at 0.5 μL in 384-well, polystyrene, clear bottom, tissue culture treated plates with lids (Greiner Bio-One, Kremsmunster, Austria) to generate 11-point dose response curves. Low control wells (0% kynurenine or 100% cytotoxicity) contained either 0.5 μL of DMSO in the presence of unstimulated (-IFN-γ/-LPS) PBMCs for the mass spectrometry assay or 0.5 μL of DMSO in the absence of cells for the cytotoxicity assay, and high control wells (100% kynurenine or 0% cytotoxicity) contained 0.5 μL of DMSO in the presence of stimulated (+IFN-γ/+LPS) PBMCs for both the mass spectrometry and cytotoxicity assays.
# Frozen stocks of PBMCs were washed and recovered in RPMI 1640 medium (Thermo Fisher Scientific, Inc., Waltham, Mass.) supplemented with 10% v/v heat-inactivated fetal bovine serum (FBS) (Thermo Fisher Scientific, Inc., Waltham, Mass.), and 1× penicillin-streptomycin antibiotic solution (Thermo Fisher Scientific, Inc., Waltham, Mass.). The cells were diluted to 1,000,000 cells/mL in the supplemented RPMI 1640 medium. 50 μL of either the cell suspension, for the mass spectrometry assay, or medium alone, for the cytotoxicity assay, were added to the low control wells, on the previously prepared 384-well compound plates, resulting in 50,000 cells/well or 0 cells/well respectively. IFN-γ and LPS were added to the remaining cell suspension at final concentrations of 100 ng/ml and 50 ng/ml respectively, and 50 μL of the stimulated cells were added to all remaining wells on the 384-well compound plates. The plates, with lids, were then placed in a 37° C., 5% CO2 humidified incubator for 2 days.
# Following incubation, the 384-well plates were removed from the incubator and allowed to equilibrate to room temperature for 30 minutes. For the cytotoxicity assay, CellTiter-Glo® was prepared according to the manufacturer's instructions, and 40 μL were added to each plate well. After a twenty minute incubation at room temperature, luminescence was read on an EnVision® Multilabel Reader (PerkinElmer Inc., Waltham, Mass.). For the mass spectrometry assay, 10 μL of supernatant from each well of the compound-treated plates were added to 40 μL of acetonitrile, containing 10 μM of an internal standard for normalization, in 384-well, polypropylene, V-bottom plates (Greiner Bio-One, Kremsmunster, Austria) to extract the organic analytes. Following centrifugation at 2000 rpm for 10 minutes, 10 μL from each well of the acetonitrile extraction plates were added to 90 μL of sterile, distilled H2O in 384-well, polypropylene, V-bottom plates for analysis of kynurenine and the internal standard on the RapidFire 300 (Agilent Technologies, Santa Clara, Calif.) and 4000 QTRAP MS (SCIEX, Framingham, Mass.). MS data were integrated using Agilent Technologies' RapidFire Integrator software, and data were normalized for analysis as a ratio of kynurenine to the internal standard. […]
# T1 sequence (P14902 whole entry): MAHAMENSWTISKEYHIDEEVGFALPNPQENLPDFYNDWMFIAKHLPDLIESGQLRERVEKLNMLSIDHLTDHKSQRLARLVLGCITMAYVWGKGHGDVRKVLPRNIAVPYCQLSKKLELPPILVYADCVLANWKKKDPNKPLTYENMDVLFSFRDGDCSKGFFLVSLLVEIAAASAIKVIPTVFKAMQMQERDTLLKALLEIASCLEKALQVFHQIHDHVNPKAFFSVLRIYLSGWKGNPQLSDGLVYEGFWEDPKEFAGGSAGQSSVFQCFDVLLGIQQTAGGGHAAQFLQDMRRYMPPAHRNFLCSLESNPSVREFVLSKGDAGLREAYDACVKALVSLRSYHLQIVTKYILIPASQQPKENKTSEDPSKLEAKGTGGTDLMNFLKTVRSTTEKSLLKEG
row,IC50 [nM],Structure (SMILES)
1,1.58,"COc1ccc([C@H](CC2CCN(C(=O)OC(C)(C)C)CC2)NC(=O)c2ccc(Br)s2)cn1 [Example 29, tert-butyl (S)-4-(2-(5-bromothiophene-2-carboxamido)-2-(6-methoxypyridin-3-yl)ethyl)piperidine-1-carboxylate]"
2,10,"CCc1ccc(C(=O)N[C@@H](CC2CCN(C(=O)OC(C)(C)C)CC2)c2ccccc2)s1 [Example 30, tert-butyl (S)-4-(2-(5-ethylthiophene-2-carboxamido)-2-phenylethyl)piperidine-1-carboxylate]"
3,1.58,"COc1ccc([C@H](CC2CCN(C(=O)Oc3ccccc3)CC2)NC(=O)c2ccc(Cl)s2)cn1 [Example 36, phenyl (S)-4-(2-(5-chlorothiophene-2-carboxamido)-2-(6-methoxypyridin-3-yl)ethyl)piperidine-1-carboxylate]"
4,5.01,"C[C@H](CC1CCN(C(=O)OC(C)(C)C)CC1)NC(=O)c1ccc(Cl)s1 [Example 38, tert-butyl (R)-4-(2-(5-chlorothiophene-2-carboxamido)propyl)piperidine-1-carboxylate]"
5,5.01,"COc1ccc([C@H](CC2CCN(C(=O)CC(C)(C)C)CC2)NC(=O)c2ccc(Cl)s2)cn1 [Example 39, (S)-5-chloro-N-(2-(1-(3,3-dimethylbutanoyl)piperidin-4-yl)-1-(6-methoxypyridin-3-yl)ethyl)thiophene-2-carboxamide]"
6,3.98,"COc1ccc([C@H](CC2CCN(C(=O)NC(C)(C)C)CC2)NC(=O)c2ccc(Cl)s2)cn1 [Example 40, (S)-N-(tert-butyl)-4-(2-(5-chlorothiophene-2-carboxamido)-2-(6-methoxypyridin-3-yl)ethyl)piperidine-1-carboxamide]"
7,3.98,"COc1ccc([C@H](CC2CCN(S(=O)(=O)CC(C)C)CC2)NC(=O)c2ccc(Cl)s2)cn1 [Example 41, (S)-5-chloro-N-(2-(1-(isobutylsulfonyl)piperidin-4-yl)-1-(6-methoxypyridin-3-yl)ethyl)thiophene-2-carboxamide]"

# The next lines start with the molecule.
row,Structure (SMILES),IC50 [nM]
1,"CC(C)(C)OC(=O)N1CCC(CC(NC(=O)c2ccc(Br)s2)C2CCCCC2)CC1 (centres unmarked) [Example 31, tert-butyl 4-(2-(5-bromothiophene-2-carboxamido)-2-cyclohexylethyl)piperidine-1-carboxylate]",7.94
2,"CC(C)OC(=O)N1CCC(C[C@H](NC(=O)c2ccc(Cl)cc2)c2ccccc2)CC1 [Example 32, isopropyl (S)-4-(2-(4-chlorobenzamido)-2-phenylethyl)piperidine-1-carboxylate]",10
3,"CCc1ccc(C(=O)N[C@@H](CC2CCN(C(=O)OC(C)C)CC2)c2ccccc2)s1 [Example 33, isopropyl (S)-4-(2-(5-ethylthiophene-2-carboxamido)-2-phenylethyl)piperidine-1-carboxylate]",7.94
4,"C=CC[C@H](CC1CCN(C(=O)OC(C)(C)C)CC1)NC(=O)c1ccc(Cl)s1 [Example 34, tert-butyl (R)-4-(2-(5-chlorothiophene-2-carboxamido)pent-4-en-1-yl)piperidine-1-carboxylate]",3.98
5,"CC(C)CC(CC1CCN(C(=O)Oc2ccccc2)CC1)NC(=O)c1ccc(Cl)s1 (centres unmarked) [Example 35, phenyl 4-(2-(5-chlorothiophene-2-carboxamido)-4-methylpentyl)piperidine-1-carboxylate]",6.31
6,"COc1ccc([C@H](CC2CCN(C(=O)Oc3ccccc3)CC2)NC(=O)c2ccc(Cl)cc2)cn1 [Example 37, phenyl (S)-4-(2-(4-chlorobenzamido)-2-(6-methoxypyridin-3-yl)ethyl)piperidine-1-carboxylate]",2.51
7,"C[C@H](CC1CCN(C(=O)Oc2ccccc2)CC1)NC(=O)c1ccc(Cl)s1 [Example 42, phenyl (R)-4-(2-(5-chlorothiophene-2-carboxamido)propyl)piperidine-1-carboxylate]",5.01

# — patent US20210078988A1, “MODULATORS OF INDOLEAMINE 2,3-DIOXYGENASE” (GLAXOSMITHKLINE INTELLECTUAL PROPERTY DEVELOPMENT LIMITED, priority 2017, published 2021)
